Assays:
HiBit-BRM fusion protein = target: T1, HiBit-BRM fusion protein (Homo sapiens, UniProt P51531); assay: HiBiT-BRM cell-based degradation assay (Nano-Glo HiBiT Lytic Detection, 24 h); details: HeLa cells expressing HiBiT-BRM; for DC50: read-out: BRM HiBit Degradation IC50; for BRM HiBit Degradation Maximum measured: top dose 30 μM
T1 construct: expressed in transfected cells
Procedure, shortened: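 Residual HiBiT-BRM in a stable HeLa line was measured by Nano-Glo lytic luminescence after 24 h compound exposure (top final dose 30 μM, 3-fold, 10 points, duplicate). Values are % degradation, scaled between DMSO-treated cells and cells given 2 μM of a known BRM/BRG1 degrader.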

[1] = target: T2, HiBit-BRG1 fusion protein (Homo sapiens, UniProt P51532); assay: HiBiT-BRG1 cell-based degradation assay (Nano-Glo HiBiT Lytic Detection, 24 h); details: HeLa cells expressing HiBit-BRG1 and LgBit; for DC50: read-out: BRG1 HiBit Degradation IC50; for Dmax: HeLa, top dose 30 μM, read-out: BRG1 HiBit Degradation Maximum measured
T2 construct: expressed in transfected cells
Procedure, shortened: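 Degradation is scaled from DMSO-treated cells (0%) to cells given 2 μM of a known BRM/BRG1 degrader (100%). HeLa cells stably carrying HiBiT-BRG1 plus LgBiT (5000/well) were lysed with Nano-Glo HiBiT detection reagent, shaken 10 min at RT, and luminescence read.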

T2 sequence (P51532 whole entry, the tested form may be a part): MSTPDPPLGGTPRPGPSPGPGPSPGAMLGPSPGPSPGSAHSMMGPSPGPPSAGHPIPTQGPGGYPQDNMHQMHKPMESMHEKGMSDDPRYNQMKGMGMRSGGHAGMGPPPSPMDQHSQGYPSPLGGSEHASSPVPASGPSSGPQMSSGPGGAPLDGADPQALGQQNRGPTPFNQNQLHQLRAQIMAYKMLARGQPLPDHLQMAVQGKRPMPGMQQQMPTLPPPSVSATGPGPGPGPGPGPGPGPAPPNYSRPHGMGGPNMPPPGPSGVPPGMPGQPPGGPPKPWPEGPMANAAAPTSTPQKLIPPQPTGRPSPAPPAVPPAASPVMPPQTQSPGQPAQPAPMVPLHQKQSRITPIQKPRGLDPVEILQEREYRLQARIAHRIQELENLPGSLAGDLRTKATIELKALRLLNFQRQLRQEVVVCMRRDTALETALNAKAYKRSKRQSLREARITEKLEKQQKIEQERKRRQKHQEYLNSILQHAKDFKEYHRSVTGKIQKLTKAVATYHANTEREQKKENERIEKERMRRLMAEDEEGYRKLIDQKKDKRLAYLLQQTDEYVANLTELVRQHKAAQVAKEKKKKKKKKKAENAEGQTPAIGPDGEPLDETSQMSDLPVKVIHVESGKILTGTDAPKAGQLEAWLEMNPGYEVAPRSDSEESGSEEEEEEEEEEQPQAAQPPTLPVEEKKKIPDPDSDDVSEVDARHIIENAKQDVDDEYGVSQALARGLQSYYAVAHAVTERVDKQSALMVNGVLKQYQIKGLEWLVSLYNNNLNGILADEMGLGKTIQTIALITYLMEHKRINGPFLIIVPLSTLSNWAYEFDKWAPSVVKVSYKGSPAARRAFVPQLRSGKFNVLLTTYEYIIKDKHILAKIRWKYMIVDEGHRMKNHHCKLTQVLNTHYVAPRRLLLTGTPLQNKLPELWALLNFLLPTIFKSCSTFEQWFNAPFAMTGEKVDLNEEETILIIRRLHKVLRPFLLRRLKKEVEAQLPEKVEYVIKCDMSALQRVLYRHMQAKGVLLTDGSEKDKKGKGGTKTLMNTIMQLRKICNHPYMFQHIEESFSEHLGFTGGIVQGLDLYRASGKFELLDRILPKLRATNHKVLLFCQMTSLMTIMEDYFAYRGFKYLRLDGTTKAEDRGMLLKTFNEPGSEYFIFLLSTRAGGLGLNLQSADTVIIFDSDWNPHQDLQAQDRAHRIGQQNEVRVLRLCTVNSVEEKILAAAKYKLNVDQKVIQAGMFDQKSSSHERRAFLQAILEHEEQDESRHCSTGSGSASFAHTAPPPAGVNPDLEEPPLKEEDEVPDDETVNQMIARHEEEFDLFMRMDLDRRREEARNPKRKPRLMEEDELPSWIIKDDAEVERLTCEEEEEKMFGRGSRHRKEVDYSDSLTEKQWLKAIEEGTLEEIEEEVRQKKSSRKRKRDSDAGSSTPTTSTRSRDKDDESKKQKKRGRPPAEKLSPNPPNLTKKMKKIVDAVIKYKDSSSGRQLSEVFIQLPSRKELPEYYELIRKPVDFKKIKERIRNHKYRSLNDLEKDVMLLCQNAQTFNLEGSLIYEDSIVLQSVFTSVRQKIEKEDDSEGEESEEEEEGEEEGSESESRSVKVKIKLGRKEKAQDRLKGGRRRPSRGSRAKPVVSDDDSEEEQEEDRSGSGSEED
T1 sequence (P51531 whole entry, the tested form may be a part): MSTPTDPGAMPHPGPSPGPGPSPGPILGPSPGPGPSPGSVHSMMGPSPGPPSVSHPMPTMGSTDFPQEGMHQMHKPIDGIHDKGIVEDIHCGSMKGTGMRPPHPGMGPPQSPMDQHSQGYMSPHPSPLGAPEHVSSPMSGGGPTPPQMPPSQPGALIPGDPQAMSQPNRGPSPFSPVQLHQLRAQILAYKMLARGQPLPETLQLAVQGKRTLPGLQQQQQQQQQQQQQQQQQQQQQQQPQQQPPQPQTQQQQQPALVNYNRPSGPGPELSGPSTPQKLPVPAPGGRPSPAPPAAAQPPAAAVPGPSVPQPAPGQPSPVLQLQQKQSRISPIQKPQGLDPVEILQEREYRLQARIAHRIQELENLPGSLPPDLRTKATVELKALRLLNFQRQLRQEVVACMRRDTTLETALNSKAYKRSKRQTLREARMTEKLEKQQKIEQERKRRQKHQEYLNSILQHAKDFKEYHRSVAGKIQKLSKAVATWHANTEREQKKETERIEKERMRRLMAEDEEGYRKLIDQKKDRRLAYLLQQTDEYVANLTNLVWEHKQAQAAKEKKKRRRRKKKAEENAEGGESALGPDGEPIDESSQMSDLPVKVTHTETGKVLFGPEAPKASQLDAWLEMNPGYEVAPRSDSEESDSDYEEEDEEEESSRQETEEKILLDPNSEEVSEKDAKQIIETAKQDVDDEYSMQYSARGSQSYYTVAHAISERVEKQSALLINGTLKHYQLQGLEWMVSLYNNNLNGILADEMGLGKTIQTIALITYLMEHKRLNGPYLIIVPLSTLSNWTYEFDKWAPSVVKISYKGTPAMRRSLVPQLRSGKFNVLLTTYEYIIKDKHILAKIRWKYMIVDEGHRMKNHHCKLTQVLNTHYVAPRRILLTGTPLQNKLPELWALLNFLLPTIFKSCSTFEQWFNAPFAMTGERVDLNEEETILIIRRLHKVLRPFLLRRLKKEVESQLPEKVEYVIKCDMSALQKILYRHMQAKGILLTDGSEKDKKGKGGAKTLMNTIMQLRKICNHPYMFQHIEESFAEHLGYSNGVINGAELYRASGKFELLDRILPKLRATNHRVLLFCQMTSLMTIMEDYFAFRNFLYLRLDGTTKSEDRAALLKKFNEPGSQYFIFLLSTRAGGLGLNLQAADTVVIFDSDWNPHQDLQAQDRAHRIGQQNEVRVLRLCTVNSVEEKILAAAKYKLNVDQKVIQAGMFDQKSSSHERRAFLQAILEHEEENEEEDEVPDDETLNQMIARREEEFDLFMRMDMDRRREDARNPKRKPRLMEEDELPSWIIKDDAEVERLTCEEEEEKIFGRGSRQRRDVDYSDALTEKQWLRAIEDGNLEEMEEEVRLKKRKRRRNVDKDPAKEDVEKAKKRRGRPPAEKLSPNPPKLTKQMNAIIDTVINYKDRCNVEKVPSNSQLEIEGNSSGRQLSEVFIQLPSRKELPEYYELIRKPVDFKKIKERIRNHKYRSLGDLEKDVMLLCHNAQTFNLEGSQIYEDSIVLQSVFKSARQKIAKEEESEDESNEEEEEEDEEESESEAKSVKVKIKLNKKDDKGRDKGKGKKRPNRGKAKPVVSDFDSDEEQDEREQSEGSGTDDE

**Q.** What does the source list for CS(=O)(=O)n1ccc(C(=O)NCC(=O)Nc2nc(-c3cccc(-c4ccnc(C5(C(=O)NCCCCCNc6cccc7c6C(=O)N(C6CCC(=O)NC6=O)C7=O)CC5)c4)c3)cs2)c1 (centres unmarked) [Compound 12, N-(2-((4-(3-(2-(1-((5-((2-(2,6-dioxopiperidin-3-yl)-1,3-dioxoisoindolin-4-yl)amino)pentyl)carbamoyl)cyclopropyl)-pyridin-4-yl)phenyl)thiazol-2-yl)amino)-2-oxoethyl)-1-(methylsulfonyl)-1H-pyrrole-3-carboxamide]?
**A.** DC50 (HiBit-BRM fusion protein): > 10 µM; BRM HiBit Degradation Maximum measured (HiBit-BRM fusion protein): C (‘C’ = Maximum degradation <50%); DC50 [1]: 0.1 to 1 µM; Dmax [1]: > 75%

**Q.** With CS(=O)(=O)n1ccc(C(=O)N[C@@H](COCc2ccc(C(=O)NCCOCCOCCNC(=O)COc3ccc4c(c3)C(=O)N(C3CCC(=O)NC3=O)C4=O)cc2)C(=O)Nc2nc(-c3ccccc3)cs2)c1 (stereo partly drawn) [Compound 203, (2S)-3-([4-[(2-[2-[2-(2-[[2-(2,6-dioxopiperidin-3-yl)-1,3-dioxoisoindol-5-yl]oxy]acetamido)ethoxy]ethoxy]ethyl)carbamoyl]phenyl]methoxy)-2-[(1-methanesulfonylpyrrol-3-yl)formamido]-N-(4-phenyl-1,3-thiazol-2-yl)propanamide] as the molecule, how does the DC50 (HiBit-BRM fusion protein) read?
**A.** > 10 µM

**Q.** And the “BRM HiBit Degradation Maximum measured” value (HiBit-BRM fusion protein)?
**A.** C (‘C’ = Maximum degradation <50%)

**Q.** What about the DC50 [1] of the same molecule?
**A.** > 10 µM

**Q.** And the Dmax [1]?
**A.** < 50%

**Q.** With CN(CCNC(=O)C1(c2cc(-c3cccc(-c4csc(NC(=O)CNC(=O)c5ccn(S(C)(=O)=O)c5)n4)c3)ccn2)CC1)CCOCCOc1cccc2c1C(=O)N(C1CCC(=O)NC1=O)C2=O (centres unmarked) [Compound 112, N-(2-((4-(3-(2-(1-((2-((2-(2-((2-(2,6-dioxopiperidin-3-yl)-1,3-dioxoisoindolin-4-yl)oxy)ethoxy)ethyl)(methyl)amino)-ethyl)carbamoyl)cyclopropyl)-pyridin-4-yl)phenyl)thiazol-2-yl)amino)-2-oxoethyl)-1-(methylsulfonyl)-1H-pyrrole-3-carboxamide] as the molecule, how does the DC50 (HiBit-BRM fusion protein) read?
**A.** > 10 µM

**Q.** And the “BRM HiBit Degradation Maximum measured” value (HiBit-BRM fusion protein)?
**A.** C (‘C’ = Maximum degradation <50%)

**Q.** And the DC50 [1]?
**A.** > 10 µM

**Q.** What about the Dmax [1] of the same molecule?
**A.** < 50%

**Q.** How did the DC50 (HiBit-BRM fusion protein) turn out when CN1C(=O)CCC(N2C(=O)c3cccc(OCC(=O)NCCCCCCCCNC(=O)C4(c5cc(-c6cccc(-c7csc(NC(=O)CNC(=O)c8ccn(S(C)(=O)=O)c8)n7)c6)ccn5)CC4)c3C2=O)C1=O (centres unmarked) [Compound 129, N-[2-[[4-[3-[2-[1-[8-[[2-[2-(1-methyl-2,6-dioxo-3-piperidyl)-1,3-dioxo-isoindolin-4-yl]oxyacetyl]amino]octylcarbamoyl]cyclopropyl]-4-pyridyl]phenyl]thiazol-2-yl]amino]-2-oxo-ethyl]-1-methylsulfonyl-pyrrole-3-carboxamide] was run?
**A.** > 10 µM

**Q.** What about the “BRM HiBit Degradation Maximum measured” value (HiBit-BRM fusion protein) of the same molecule?
**A.** C (‘C’ = Maximum degradation <50%)

**Q.** What about the DC50 [1] of the same molecule?
**A.** > 10 µM

**Q.** What about the Dmax [1] of the same molecule?
**A.** < 50%

**Q.** Which DC50 (HiBit-BRM fusion protein) does the source give for CS(=O)(=O)n1ccc(C(=O)NCC(=O)Nc2nc(-c3cccc(-c4cccc(CNC(=O)CCCCCCCCCCNc5cccc6c5C(=O)N(C5CCC(=O)NC5=O)C6=O)c4)c3)cs2)c1 (centres unmarked) [Compound 51, N-[2-[[4-[3-[3-[[11-[[2-(2,6-dioxo-3-piperidyl)-1,3-dioxo-isoindolin-4-yl]amino]undecanoylamino]methyl]-phenyl]phenyl]thiazol-2-yl]amino]-2-oxo-ethyl]-1-methylsulfonyl-pyrrole-3-carboxamide] here?
**A.** > 10 µM

**Q.** And the “BRM HiBit Degradation Maximum measured” value (HiBit-BRM fusion protein)?
**A.** C (‘C’ = Maximum degradation <50%)

**Q.** And the DC50 [1]?
**A.** 0.1 to 1 µM

**Q.** And the Dmax [1]?
**A.** 50 to 75%

**Q.** What does the source list for CS(=O)(=O)n1ccc(C(=O)N[C@@H](COCCCC(=O)NCCCCCNc2ccc3c(c2)C(=O)N(C2CCC(=O)NC2=O)C3=O)C(=O)Nc2nc(-c3ccccc3)cs2)c1 (stereo partly drawn) [Compound 187, N-(5-[[2-(2,6-dioxopiperidin-3-yl)-1,3-dioxoisoindol-5-yl]amino]pentyl)-4-[(2S)-2-[(1-methanesulfonylpyrrol-3-yl)formamido]-2-[(4-phenyl-1,3-thiazol-2-yl)carbamoyl]ethoxy]butanamide]?
**A.** DC50 (HiBit-BRM fusion protein): > 10 µM; BRM HiBit Degradation Maximum measured (HiBit-BRM fusion protein): C (‘C’ = Maximum degradation <50%); DC50 [1]: > 10 µM; Dmax [1]: < 50%

**Q.** With CS(=O)(=O)n1ccc(C(=O)N[C@@H](CCOCCCC(=O)NCCCCCNc2ccc3c(c2)C(=O)N(C2CCC(=O)NC2=O)C3=O)C(=O)Nc2nc(-c3ccccc3)cs2)c1 (stereo partly drawn) [Compound 287, (2S)-4-[3-[(5-[[2-(2,6-dioxopiperidin-3-yl)-1,3-dioxoisoindol-5-yl]amino]pentyl)carbamoyl]propoxy]-2-[(1-methanesulfonylpyrrol-3-yl)formamido]-N-(4-phenyl-1,3-thiazol-2-yl)butanamide] as the molecule, how does the DC50 (HiBit-BRM fusion protein) read?
**A.** > 10 µM

**Q.** What about the “BRM HiBit Degradation Maximum measured” value (HiBit-BRM fusion protein) of the same molecule?
**A.** C (‘C’ = Maximum degradation <50%)

**Q.** And the DC50 [1]?
**A.** > 10 µM

**Q.** And the Dmax [1]?
**A.** < 50%

**Q.** For CS(=O)(=O)n1ccc(C(=O)N[C@@H](COCCCC(=O)NCCCCS(=O)(=O)CCCNc2cccc3c2C(=O)N(C2CCC(=O)NC2=O)C3=O)C(=O)Nc2nc(-c3ccccc3)cs2)c1 (some centres unmarked) [Compound 172], which DC50 (HiBit-BRM fusion protein) is on record?
**A.** > 10 µM

**Q.** What about the “BRM HiBit Degradation Maximum measured” value (HiBit-BRM fusion protein) of the same molecule?
**A.** C (‘C’ = Maximum degradation <50%)

**Q.** What about the DC50 [1] of the same molecule?
**A.** > 10 µM

**Q.** And the Dmax [1]?
**A.** < 50%

**Q.** For CS(=O)(=O)n1ccc(C(=O)NCC(=O)Nc2nc(-c3cccc(-c4ccnc(N5CCN(C(=O)CCCCCCCCCCNc6ccc7c(c6)C(=O)N(C6CCC(=O)NC6=O)C7=O)CC5)c4)c3)cs2)c1 (centres unmarked) [Compound 35, N-[2-[[4-[3-[2-[4-[11-[[2-(2,6-dioxo-3-piperidyl)-1,3-dioxo-isoindolin-5-yl]amino]undecanoyl]piperazin-1-yl]-4-pyridyl]phenyl]thiazol-2-yl]amino]-2-oxo-ethyl]-1-methylsulfonyl-pyrrole-3-carboxamide], which DC50 (HiBit-BRM fusion protein) is on record?
**A.** 0.1 to 1 µM

**Q.** And the “BRM HiBit Degradation Maximum measured” value (HiBit-BRM fusion protein)?
**A.** A (‘A’ = Maximum degradation >75%)

**Q.** What about the DC50 [1] of the same molecule?
**A.** < 0.1 µM

**Q.** What about the Dmax [1] of the same molecule?
**A.** > 75%

**Q.** With CS(=O)(=O)n1ccc(C(=O)NCC(=O)Nc2nc(-c3cccc(-c4ccn(CC(=O)NCCCCCNc5cccc6c5C(=O)N(C5CCC(=O)NC5=O)C6=O)n4)c3)cs2)c1 (centres unmarked) [Compound 2, N-[2-[[4-[3-[1-[2-[5-[[2-(2,6-dioxo-3-piperidyl)-1,3-dioxoisoindolin-4-yl]amino]pentylamino]-2-oxo-ethyl]pyrazol-3-yl]phenyl]thiazol-2-yl]amino]-2-oxo-ethyl]-1-methylsulfonylpyrrole-3-carboxamide] as the molecule, how does the DC50 (HiBit-BRM fusion protein) read?
**A.** > 10 µM

**Q.** And the “BRM HiBit Degradation Maximum measured” value (HiBit-BRM fusion protein)?
**A.** C (‘C’ = Maximum degradation <50%)

**Q.** What about the DC50 [1] of the same molecule?
**A.** > 10 µM

**Q.** And the Dmax [1]?
**A.** < 50%

**Q.** What does the source list for CS(=O)(=O)n1ccc(C(=O)N[C@@H](COCc2ccc(CNC(=O)CCN3CCN(c4ccc5c(c4)C(=O)N(C4CCC(=O)NC4=O)C5=O)CC3)cc2)C(=O)Nc2nc(-c3ccccc3)cs2)c1 (stereo partly drawn) [Compound 215, (2S)-3-([4-[(3-[4-[2-(2,6-dioxopiperidin-3-yl)-1,3-dioxoisoindol-5-yl]piperazin-1-yl]propanamido)methyl]phenyl]methoxy)-2-[(1-methanesulfonylpyrrol-3-yl)formamido]-N-(4-phenyl-1,3-thiazol-2-yl)propanamide; formic acid]?
**A.** DC50 (HiBit-BRM fusion protein): 0.1 to 1 µM; BRM HiBit Degradation Maximum measured (HiBit-BRM fusion protein): B (‘B’ = Maximum degradation ≥50% and ≤75%); DC50 [1]: 0.1 to 1 µM; Dmax [1]: > 75%
